Data from BindingDB's records for doi:10.1021/acsmedchemlett.8b00406 (China Agricultural University, 2018).

Target: beta-hexosaminidase HsHex (Homo sapiens)
Experiment: Inhibition of human beta-N-acetylhexosaminidase using p-nitrophenyl glycoside as substrate by spectrometric method

Ki: 3.2 µM
Compound: O=C1c2cccc3cccc(c23)C(=O)N1CCNCCN1C(=O)c2cccc3cccc(c23)C1=O
